Measurements: patent US20140023611A1 (priority 2010, published 2014)
“And” between values parts separate entries of the source, which are not always exact repeats. Equal entries are not always repeated. Structures can show the parent of a compound that is named as a salt.

What was measured:
[1] = Stability of compounds in simulated intestinal fluid (SIF); assay type: in vitro ADME; conditions: simulated intestinal fluid (3 mg/mL pancreatin), incubation time 6 hr, relative to t=0
Procedure, shortened: (§1)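 Compounds at […] were incubated 3 or 6 hr in USP simulated gastric fluid with 3 mg/mL pepsin or simulated intestinal fluid with 3 mg/mL pancreatin. Remaining compound was quantified by HPLC-UV or HPLC-MS peak area % and reported as percent of the t=0 level in the same medium.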

[2] = Stability of compounds in simulated gastric fluid (SGF); assay type: in vitro ADME; conditions: simulated gastric fluid (3 mg/mL pepsin), incubation time 6 hr, relative to t=0
Procedure, shortened: as §1

human NaP2b (SLC34A2) = biological target: T1, human NaP2b (SLC34A2) (Homo sapiens, UniProt O95436); experiment: Inhibition of NaP2b-mediated Pi (33P) uptake in transfected HEK293 cells, human NaP2b; assay type: cell-based; conditions: read-out: pIC50 range for human NaP2b (converted)
T1 construct: host or cells: HEK293
T1 sequence (O95436 1-690): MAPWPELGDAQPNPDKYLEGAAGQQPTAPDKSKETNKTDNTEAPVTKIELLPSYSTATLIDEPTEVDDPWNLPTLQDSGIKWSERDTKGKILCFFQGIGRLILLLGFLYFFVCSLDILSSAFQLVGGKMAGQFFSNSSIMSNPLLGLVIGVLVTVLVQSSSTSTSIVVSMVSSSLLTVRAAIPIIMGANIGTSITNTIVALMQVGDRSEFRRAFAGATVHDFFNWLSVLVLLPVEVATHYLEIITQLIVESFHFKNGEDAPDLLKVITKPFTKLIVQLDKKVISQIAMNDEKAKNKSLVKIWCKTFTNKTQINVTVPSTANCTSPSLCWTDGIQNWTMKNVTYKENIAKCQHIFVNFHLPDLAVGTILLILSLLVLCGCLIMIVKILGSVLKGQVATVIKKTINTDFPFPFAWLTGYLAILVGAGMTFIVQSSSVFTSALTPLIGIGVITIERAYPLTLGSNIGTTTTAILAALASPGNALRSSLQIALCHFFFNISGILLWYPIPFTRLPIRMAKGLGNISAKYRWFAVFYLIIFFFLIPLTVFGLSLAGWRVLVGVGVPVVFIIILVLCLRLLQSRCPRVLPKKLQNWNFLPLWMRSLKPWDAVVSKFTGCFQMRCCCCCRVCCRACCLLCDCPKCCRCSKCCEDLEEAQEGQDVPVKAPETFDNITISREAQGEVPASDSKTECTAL
Procedure, shortened: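 Uptake of 33P-phosphate (100 uM KH2PO4 carrier, sodium vs choline buffer, pH 7.4) measured after 3-30 min at room temperature, with test compound at twelve concentrations from 0.1 nM to 30 uM in duplicate. Cells were HEK293 transfected with mutated human NaP2b (Thr insertion after 37, N39D) and treated with a PiT-silencing agent. pIC50 values from scintillation counts.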

[3] = Fecal recovery of orally administered compounds; assay type: in vivo, Sprague-Dawley rats; conditions: Structure (I) examples, Table 16; rat, oral gavage, feces collected until 48 hr after dosing
Procedure, shortened: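 After oral dosing, feces collected in metabolic cages up to 48 h, lyophilized and ground. Duplicate weighed portions per animal extracted with organic solvent under non-compound-optimized conditions, so recovery may be a minimal estimate.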

SMILES | % remaining, SIF [1] | % remaining, SGF [2] | IC50 (human NaP2b (SLC34A2)) | % recovered in feces [3]
O=C(O)c1cccc(SCc2cccc(C(=O)Nc3ccc(N4CCCCC4)cc3-c3cc(C(=O)NCc4cccc(C(F)(F)F)c4)ccn3)c2)c1 [Example 8.1, 3-(3-(4-(piperidin-1-yl)-2-(4-(3-(trifluoromethyl)benzylcarbamoyl)pyridin-2-yl)phenylcarbamoyl)benzylthio)benzoic acid] | >80% | 60-80% | < 1000 nM | <20%
O=C(NCc1cccc(C(F)(F)F)c1)c1ccnc(-c2cc(N3CCCCC3)ccc2NC(=O)c2cccc(CSc3ccc(C(=O)O)c(Br)c3)c2)c1 [Example 8.21] | >80% | >80% | 1260 nM | >80%
CN(CCOCCOCCOCCC(=O)O)C(=O)Cc1cccc(SCc2cccc(C(=O)Nc3ccc(N4CCCCC4)cc3-c3cc(C(=O)NCc4cccc(C(F)(F)F)c4)ccn3)c2)c1 [Example 138] | 40-60% | >80% | 1000 to 7940 nM | <20%
CCN(CC)c1ccc(NC(=O)c2cccc(CSCCOCCOCCOCCOCCOCCOCCOCCOCCC(=O)O)c2)c(-c2cc(C(=O)N[C@H]3CCCc4ccccc43)ccn2)c1 [Example 161, (S)-1-(3-(4-(diethylamino)-2-(4-(1,2,3,4-tetrahydronaphthalen-1-ylcarbamoyl)pyridin-2-yl)phenylcarbamoyl)phenyl)-5,8,11,14,17,20,23,26-octaoxa-2-thianonacosan-29-oic acid] | >80% | >80% | 1000 to 7940 nM | >80%
CCN(CC)c1ccc(NC(=O)c2cccc(CSCCOCCOCCOCCOCCC(=O)O)c2)c(-c2cc(C(=O)NCc3cccc(C(F)(F)F)c3)ccn2)c1 [Example 162, 1-(3-(4-(diethylamino)-2-(4-(3-(trifluoromethyl)benzylcarbamoyl)pyridin-2-yl)phenylcarbamoyl)phenyl)-5,8,11,14-tetraoxa-2-thiaheptadecan-17-oic acid] | >80% | >80% | < 1000 nM | 20-80%
CCN(CC)c1ccc(NC(=O)c2cccc(CSCCOCCOCCOCCOCCOCCOCCOCCOCCC(=O)O)c2)c(-c2cc(C(=O)NCc3cccc(C(F)(F)F)c3)ccn2)c1 [Example 166, 1-(3-(4-(diethylamino)-2-(4-(3-(trifluoromethyl)benzylcarbamoyl)pyridin-2-yl)phenylcarbamoyl)phenyl)-5,8,11,14,17,20,23,26-octaoxa-2-thianonacosan-29-oic acid] | >80% | >80% | 1000 to 7940 nM | >80%
O=C(O)CCOCCOCCOCCNC(=O)c1cccc2c1ccn2Cc1cccc(C(=O)Nc2ccc(N3CCCCC3)cc2-c2cc(C(=O)N[C@H]3CCCc4ccccc43)ccn2)c1 [Example 181, (S)-1-oxo-1-(1-(3-(4-(piperidin-1-yl)-2-(4-(1,2,3,4-tetrahydronaphthalen-1-ylcarbamoyl)pyridin-2-yl)phenylcarbamoyl)benzyl)-1H-indol-4-yl)-5,8,11-trioxa-2-azatetradecan-14-oic acid] | >80% | >80% | < 1000 nM | >80%
CCCN(CCC)c1ccc(NC(=O)c2cccc(COCCOCCOCCOCCOCCOCCOCCOCCOC)c2)c(-c2cc(C(=O)NCc3cccc(C(F)(F)F)c3)ccn2)c1 [Example 200, 2-(2-(3-(2,5,8,11,14,17,20,23,26-nonaoxaheptacosyl)benzamido)-5-(dipropylamino)phenyl)-N-(3-(trifluoromethyl)benzyl)isonicotinamide] | >80% | >80% | < 1000 nM | 20-80%
CCN(CC)c1ccc(NC(=O)c2cccc(CCCOCCOCCOCCOCCC(=O)O)c2)c(-c2cc(C(=O)NCc3cccc(C(F)(F)F)c3)ccn2)c1 [Example 251, 16-(3-(4-(diethylamino)-2-(4-(3-(trifluoromethyl)benzylcarbamoyl)pyridin-2-yl)phenylcarbamoyl)phenyl)-4,7,10,13-tetraoxahexadecan-1-oic acid] | >80% | >80% | < 1000 nM | >80%
CCN(CC)c1ccc(NC(=O)c2cccc(CCCOCCOCCOCCOCCOCCOCCOCCOCCOC)c2)c(-c2cc(C(=O)N[C@H]3CCCc4ccccc43)ccn2)c1 [Example 261, (S)-2-(2-(3-(2,5,8,11,14,17,20,23,26-nonaoxanonacosan-29-yl)benzamido)-5-(diethylamino)phenyl)-N-(1,2,3,4-tetrahydronaphthalen-1-yl)isonicotinamide] | 60-80% and >80% | >80% | < 1000 nM | <20%
CCN(CC)c1ccc(NC(=O)c2cccc(CSCCOCCOCCOCCOCCOCCOCCOCCOC)c2)c(-c2cc(C(=O)NCc3cccc(C(F)(F)F)c3)ccn2)c1 [Example 265, 2-(2-(3-(2,5,8,11,14,17,20,23-octaoxa-26-thiaheptacosan-27-yl)benzamido)-5-(diethylamino)phenyl)-N-(3-(trifluoromethyl)benzyl)isonicotinamide] | >80% | >80% | < 1000 nM | <20%
CCN(CC)c1ccc(NC(=O)c2cccc(CCCOCCOCCOCCOCCOCCOCCOCCOCCOC)c2)c(-c2cc(C(=O)NCc3cccc(C(F)(F)F)c3)ccn2)c1 [Example 269, 2-(2-(3-(2,5,8,11,14,17,20,23,26-nonaoxanonacosan-29-yl)benzamido)-5-(diethylamino)phenyl)-N-(3-(trifluoromethyl)benzyl)isonicotinamide] | >80% | >80% | < 1000 nM | <20%
CCN(CC)c1ccc(NC(=O)c2cccc(CSCCOCCOCCOCCOCCOCCOCCOCCOC)c2)c(-c2cc(C(=O)N[C@H]3CCCc4ccccc43)ccn2)c1 [Example 286, (S)-2-(2-(3-(2,5,8,11,14,17,20,23-octaoxa-26-thiaheptacosan-27-yl)benzamido)-5-(diethylamino)phenyl)-N-(1,2,3,4-tetrahydronaphthalen-1-yl)isonicotinamide] | >80% | >80% | < 1000 nM | <20%
CCN(CC)c1ccc(NC(=O)c2cccc(CCCOCCOCCOCCOCCOCCC(=O)O)c2)c(-c2cc(C(=O)NCc3cccc(C(F)(F)F)c3)ccn2)c1 [Example 300, 19-(3-(4-(diethylamino)-2-(4-(3-(trifluoromethyl)benzylcarbamoyl)pyridin-2-yl)phenylcarbamoyl)phenyl)-4,7,10,13,16-pentaoxanonadecan-1-oic acid] |  |  | < 1000 nM | 20-80%
CCN(CC)c1ccc(NC(=O)c2cccc(C(=O)N(C)CCN(CCOC)CCOCCOCCOCCOCCOCCOCCOC)c2)c(-c2cc(C(=O)NCc3cccc(C(F)(F)F)c3)ccn2)c1 [Example 335, N^1-(4-(Diethylamino)-2-(4-(3-(trifluoromethyl)benzylcarbamoyl)pyridin-2-yl)phenyl)-N^3-(23-(2-methoxyethyl)-2,5,8,11,14,17,20-heptaoxa-23-azapentacosan-25-yl)-N^3-methylisophthalamide, trifluoroacetate] | >80% | >80% | 1000 to 7940 nM | >80%
